The values that follow come from publication PMC3364120 (British Journal of Cancer, 2012).

Read-outs that look alike come from different tables or passages of the source.

Series [1] deals with T1, OCT-1 (Homo sapiens, UniProt O15245).
T1 sequence (O15245 1-554): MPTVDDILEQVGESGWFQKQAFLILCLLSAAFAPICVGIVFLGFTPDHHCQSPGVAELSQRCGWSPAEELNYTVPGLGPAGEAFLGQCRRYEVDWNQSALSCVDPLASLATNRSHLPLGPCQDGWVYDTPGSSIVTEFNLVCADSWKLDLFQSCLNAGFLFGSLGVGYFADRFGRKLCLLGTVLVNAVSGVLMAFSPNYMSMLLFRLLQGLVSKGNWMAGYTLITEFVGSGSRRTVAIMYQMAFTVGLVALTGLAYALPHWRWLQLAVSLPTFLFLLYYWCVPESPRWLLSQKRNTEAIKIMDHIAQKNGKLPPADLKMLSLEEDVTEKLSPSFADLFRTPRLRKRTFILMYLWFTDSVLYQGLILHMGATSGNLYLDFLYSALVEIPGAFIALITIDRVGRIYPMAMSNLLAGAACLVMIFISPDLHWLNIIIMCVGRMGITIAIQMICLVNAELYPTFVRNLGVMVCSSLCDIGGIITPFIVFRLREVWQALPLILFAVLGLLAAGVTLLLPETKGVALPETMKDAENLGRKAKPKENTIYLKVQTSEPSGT
Briefly: OCT-1 activity. The series is classed as cell-based. As to conditions: K562; for change in OA / imatinib uptake via OCT-1: NSAID at concentration of Supplementary Table 1, 2 h.

Series [2] deals with T1, OCT-1. Briefly: OCT-1 activity. The series is classed as cell-based. Conditions: KU812.
Series [3] concerns the target T1, OCT-1. Briefly: OCT-1 activity. Format: cell-based.
Series [4] concerns the target T1, OCT-1. The series is described as follows: OCT-1 activity. The series is classed as cell-based. As to conditions: MNCs from normal individuals.
For series [5], the system named is K562 cells. Briefly: Trypan blue exclusion assay, viable cell number, K562. The series is classed as cell-based, human. As to conditions: for number of viable cells: 72 hours.
Series [6] has as its system KU812 cells. Briefly: Trypan blue exclusion assay, viable cell number, KU812. The series is classed as cell-based, human. Conditions: for number of viable cells: 72 hours.
For series [7], the system named is OCT-1 mRNA. Briefly: RQ-PCR for OCT-1 mRNA levels, K562. As to conditions: 2-hour incubation (data not shown). The series is classed as cell-based, human.
The subject of series [8] is OCT-1 mRNA. Briefly: RQ-PCR for OCT-1 mRNA levels, KU812. The series is classed as cell-based, human. As to conditions: 2-hour incubation (data not shown).
The conditions of series [9]: ref Siu et al, 2000; Juhlin et al, 2004; Bramlage and Goldis, 2008; cited from earlier work.
The subject of series [10] is hOCT-1. As to conditions: 0.5 mM NSAID; transfected S2 cells expressing hOCT-1; ref Khamdang et al, 2002; cited from earlier work.
Series [11] has as its system chronic myeloid leukaemia. Conditions: 7-year update of IRIS; ref Hughes et al, 2010; cited from earlier work.
For series [12], the system named is chronic myeloid leukaemia. As to conditions: imatinib 600 mg per day, ref White et al, 2007b, cited from earlier work.

Turning to `Cc1ccc(-c2cc(C(F)(F)F)nn2-c2ccc(S(N)(=O)=O)cc2)cc1` [celecoxib], the “change in OA / imatinib uptake via OCT-1” value in series [1] is recorded as “no significant impact”. For the same molecule, the “change in imatinib uptake via OCT-1” value in series [2] is listed as “no significant impact”.
For the molecule `O=C(O)Cc1ccccc1Nc1c(Cl)cccc1Cl` [diclofenac], the “cases moved from Q1 to a higher OA quartile group” value in series [3] (15 of 29 Q1 cases, 10 μM diclofenac) was determined as 51.7%. Also, the “percentage of Q1 patients' samples in which OA was increased” value in series [3] (CML MNCs with basal OA <4 ng per 200 000 cells (Q1), n=29, 10 μM diclofenac) came to 93%. In addition, in series [3] (patients with basal OA >4 ng per 200 000 cells, n=21, 10 μM diclofenac, 5.49 without, not significant (P=0.714)), the “median OA in the presence of diclofenac” value is given as 5.92 ng per 200 000cells. Further, the “change in OA” value in series [4] (n=10, diclofenac (data not shown)) was “did not result in a significant change”. Further, the “number of viable cells” value in series [5] (10 μM diclofenac + […] imatinib) was 7.82±0.56 × 10^5 ml^−1; in [6] (10 μM diclofenac + 0.05 μM imatinib) it was 5.40±0.34 × 10^5 ml^−1. In addition, the “change in cell viability” value in series [5] (diclofenac alone, no imatinib) was “no significant change”; in series [6] (diclofenac alone, no imatinib), “no significant change”. In addition, the “change in level of OCT-1 mRNA” value in series [7] and in series [8] was “no significant change” in each case. For the same molecule, in series [9], the “clinically achievable total plasma concentration” value is 10 µM. Moreover, the “effect on OCT-1-mediated TEA uptake” value in series [10] is reported as “significantly inhibit”.
For the molecule `CC(C)Cc1ccc(C(C)C(=O)O)cc1` (centres unmarked) [ibuprofen], the “OA, % of vehicle control” value in series [1] (145 μM ibuprofen, 2 h) was found to be 48%; in [2] (145 μM ibuprofen, 2 h), 59%. In addition, the “reduction in OA” value in [3] (CP-CML MNCs, 12 cases, 145 μM ibuprofen) is 41%. Also, in series [3] (CP-CML MNCs, n=12, 145 μM ibuprofen), the “range of OA after treatment” value is 1.53–7.85 ng per 200 000 cells. The “average OA after treatment” value in series [3] (CP-CML MNCs, n=12, 145 μM ibuprofen, 7.53±0.82 before) was 4.30±0.52 ng per 200 000 cells. Also, the “decrease in OA” value in series [4] (n=6, ibuprofen) was 50%. Further, the “range of OA post treatment” value in series [4] (n=6, ibuprofen) is recorded as 1.41–2.82 ng per 200 000 cells. This molecule also returned an OA post treatment in series [4] (n=6, ibuprofen, 3.70±0.45 before) of 1.83±0.26 ng per 200 000 cells. Also, the “number of viable cells” value in [5] (145 μM ibuprofen + 0.5 μM imatinib) is recorded as 8.16±1.01 × 10^5 ml^−1; in series [6] (145 μM ibuprofen + 0.1 μM imatinib), 7.23±0.78 × 10^5 ml^−1. Besides, the “change in level of OCT-1 mRNA” value in series [7] and in series [8] was “no significant change” in each case. Also, the “effect on OCT-1-mediated TEA uptake” value in [10] was “significantly inhibit”.
With `Cc1ccc(NC(=O)c2ccc(CN3CCN(C)CC3)cc2)cc1Nc1nccc(-c2cccnc2)n1` [imatinib], the “number of viable cells” value in series [5] (0.5 μM imatinib alone) is recorded as 4.88±0.96 × 10^5 ml^−1; in [6] (0.05 μM imatinib alone), 8.40±0.74 × 10^5 ml^−1; in [6] (0.1 μM imatinib alone) it was 4.97±0.47 × 10^5 ml^−1. The overall event-free survival in series [11] is reported as 81%. Also, the “transformation-free survival (to accelerated phase/blast crisis)” value in [11] is listed as 93%. Besides, the “percentage of patients achieving major molecular response (MMR) by 24 months” value in series [12] (patients with high OA) is given as 85%; in [12] (patients with low OA), 45%.
On to `COc1ccc2c(c1)c(CC(=O)O)c(C)n2C(=O)c1ccc(Cl)cc1` [indomethacin], for which the “effect on OCT-1-mediated TEA uptake” value in series [10] is listed as “significantly inhibit”.
In the case of `CS(=O)(=O)c1ccc(C2=C(c3ccccc3)C(=O)OC2)cc1` [rofecoxib], the “change in OA / imatinib uptake via OCT-1” value in [1] is recorded as “no significant impact”. Besides, in series [2], the “change in imatinib uptake via OCT-1” value is given as “no significant impact”.
On to `CC1=C(CC(=O)O)c2cc(F)ccc2/C1=C\c1ccc([S+](C)[O-])cc1` (centres unmarked) [sulindac], for which, in [10], the “effect on OCT-1-mediated TEA uptake” value is recorded as “significantly inhibit”.
